“And” between values parts separate entries of the source, which are not always exact repeats. Equal entries are not always repeated. Where two headings read alike, the source gives them in different places.
What was measured:
Type in all cases: physicochemical
[1] = Solubility of milvexian forms in organic solvent systems; details: 20 °C, organic solvent or mixture, thermodynamic from solid, 20° C.; for solubility at 2 weeks: read-out: Solubility in mg/mL solution 2 weeks; for solubility at 24 hours: read-out: Solubility in mg/mL solution 24 hours
Procedure: While heating of the feed solution is a viable solution for production, it is a more complex set-up and with risk of crashing out dissolved solids in case of cold spots and plant safety. Various solvent systems (See Table 11 below) were investigated with primary focus on solvent systems containing DCM due to its low boiling point and excellent solubilization properties.
Based on the data it was determined that 70/30 w/w % DCM/MeOH and 80/20 w/w % were promising solvent mixtures and more accurate solubility determination was carried out for 80/20 w/w % DCM/MeOH for both FORM A and P1.Acetone solvate at 20° C. with the results shown in Table 12 below.
P1.Acetone was the preferred crystalline form of milvexian for physical stability and manufacturability reasons. Based on the above, 80/20 w/w % DCM/MeOH solvent system was selected for development due to highly increase solubility over the 90/10 w/w % Acetone/Water solvent system.

[2] = Solubility in different aqueous media at 37° C.; details: for solubility at 1 day / solubility at 3 days: 37 °C, thermodynamic from solid
[3] = Solubility test of milvexian (P1.Acetone) in DCM/MeOH 70/30 w/w %, appearance over 20 hours; details: 3.75 g in 19.83 g DCM and 8.5 g MeOH (70/30 w/w %); approximately 20 hours stirring
Procedure: Due to the turbid appearance of the solution when dissolving the milvexian (P1.Acetone) in 70/30 w/w % DCM/MeOH, a solubility test was performed by adding 3.75 g of milvexian (P1.Acetone) to a mixture of 19.83 g DCM and 8.5 g MeOH (DCM/MeOH 70/30 w/w %) under stirring by a magnetic stirrer. The appearance of the solution was evaluated at different timepoints over 20 hours.

C[C@@H]1CCC[C@H](n2cnc(-c3cc(Cl)ccc3-n3cc(Cl)nn3)cc2=O)c2cc(ccn2)-c2c(cnn2C(F)F)NC1=O [P1.Acetone solvate]
solubility at 2 weeks ([1]; 60/40 DCM/MeOH, 60/40 DCM/MeOH): 99 mg/mL | solubility at 24 hours ([1]; 60/40 DCM/MeOH, 60/40 DCM/MeOH): 102 mg/mL | solubility at 2 weeks ([1]; 70/30 DCM/MeOH, 70/30 DCM/MeOH): 160 mg/mL | solubility at 2 weeks ([1]; 80/20 DCM/MeOH, 80/20 DCM/MeOH): 227 mg/mL | solubility at 24 hours ([1]; 80/20 DCM/MeOH, 80/20 DCM/MeOH): 226 mg/mL | solubility at 2 weeks ([1]; 90/10 DCM/MeOH, 90/10 DCM/MeOH): 225 mg/mL | solubility at 24 hours ([1]; 90/10 DCM/MeOH, 90/10 DCM/MeOH): 222 mg/mL | solubility at 2 weeks ([1]; 95/5 DCM/MeOH, 95/5 DCM/MeOH): 162 mg/mL | solubility at 24 hours ([1]; 95/5 DCM/MeOH, 95/5 DCM/MeOH): 163 mg/mL | solubility at 2 weeks ([1]; 100% DCM, 100% DCM): 33 mg/mL | solubility at 24 hours ([1]; 100% DCM, 100% DCM): 33 mg/mL | solubility at 2 weeks ([1]; 100% MeOH, 100% MeOH): 4.8 mg/mL | solubility at 24 hours ([1]; 100% MeOH, 100% MeOH): 4.6 mg/mL | Solubility, μg dissolved per mL at 37° C., replicates ([2]; 0.05M sodium acetate buffer pH 4.5, 1 day, single replicates): 1.57 µg/mL | Solubility, μg dissolved per mL at 37° C., replicates ([2]; 0.05M sodium acetate buffer pH 4.5, 3 days, single replicates): 1.95 µg/mL | Solubility, μg dissolved per mL at 37° C., replicates ([2]; 0.05M sodium phosphate buffer pH 6.8, 1 day, single replicates): 1.29 µg/mL and 1.48 µg/mL | Solubility, μg dissolved per mL at 37° C., replicates ([2]; 0.05M sodium phosphate buffer pH 6.8, 3 days, single replicates): 1.62 µg/mL | solubility at 1 day ([2]; 0.1M HCl, pH 1, simulated gastric fluid, 0.1M HCl, 1 day, average of 3 replicates, read-out: Solubility, μg dissolved per mL at 37° C., Average): 3.43 µg/mL | solubility at 1 day ([2]; 0.1M HCl, pH 1, simulated gastric fluid, 0.1M HCl, 1 day, single replicates, read-out: Solubility, μg dissolved per mL at 37° C., replicates): 3.36 µg/mL | solubility at 3 days ([2]; 0.1M HCl, pH 1, simulated gastric fluid, 0.1M HCl, 3 days, average of 3 replicates, read-out: Solubility, μg dissolved per mL at 37° C., Average): 3.49 µg/mL | solubility at 3 days ([2]; 0.1M HCl, pH 1, simulated gastric fluid, 0.1M HCl, 3 days, single replicates, read-out: Solubility, μg dissolved per mL at 37° C., replicates): 3.59 µg/mL | Solubility, μg dissolved per mL at 37° C., replicates ([2]; 0.1M HCl, 1 day, single replicates): 3.47 µg/mL and 3.46 µg/mL | Solubility, μg dissolved per mL at 37° C., replicates ([2]; 0.1M HCl, 3 days, single replicates): 3.30 µg/mL and 3.58 µg/mL | solubility at 1 day ([2]; sodium acetate buffer, pH 4.5, aqueous buffer, 0.05M sodium acetate buffer pH 4.5, 1 day, average of 3 replicates, read-out: Solubility, μg dissolved per mL at 37° C., Average): 1.69 µg/mL | solubility at 1 day ([2]; sodium acetate buffer, pH 4.5, aqueous buffer, 0.05M sodium acetate buffer pH 4.5, 1 day, single replicates, read-out: Solubility, μg dissolved per mL at 37° C., replicates): 1.81 µg/mL | solubility at 3 days ([2]; sodium acetate buffer, pH 4.5, aqueous buffer, 0.05M sodium acetate buffer pH 4.5, 3 days, average of 3 replicates, read-out: Solubility, μg dissolved per mL at 37° C., Average): 1.88 µg/mL | solubility at 3 days ([2]; sodium acetate buffer, pH 4.5, aqueous buffer, 0.05M sodium acetate buffer pH 4.5, 3 days, single replicates, read-out: Solubility, μg dissolved per mL at 37° C., replicates): 1.85 µg/mL | solubility at 1 day ([2]; sodium phosphate buffer, pH 6.8, aqueous buffer, 0.05M sodium phosphate buffer pH 6.8, 1 day, average of 3 replicates, read-out: Solubility, μg dissolved per mL at 37° C., Average): 1.43 µg/mL | solubility at 1 day ([2]; sodium phosphate buffer, pH 6.8, aqueous buffer, 0.05M sodium phosphate buffer pH 6.8, 1 day, single replicates, read-out: Solubility, μg dissolved per mL at 37° C., replicates): 1.53 µg/mL | solubility at 3 days ([2]; sodium phosphate buffer, pH 6.8, aqueous buffer, 0.05M sodium phosphate buffer pH 6.8, 3 days, average of 3 replicates, read-out: Solubility, μg dissolved per mL at 37° C., Average): 1.6 µg/mL | solubility at 3 days ([2]; sodium phosphate buffer, pH 6.8, aqueous buffer, 0.05M sodium phosphate buffer pH 6.8, 3 days, single replicates, read-out: Solubility, μg dissolved per mL at 37° C., replicates): 1.56 µg/mL | solubility test, appearance of the solution [3]: not fully dissolved

Reference: US20260224494A1, “MILVEXIAN PHARMACEUTICAL COMPOSITIONS” (BRISTOL-MYERS SQUIBB COMPANY, priority 2023, published 2026)
